{"source": "patent US20100209934A1", "about": "“METHOD OF IDENTIFYING AGENTS WHICH MODULATE THE ACTIVITY OF CALCIUM-ACTIVATED CHLORIDE CHANNEL” (SNU R&DB FOUNDATION, priority 2007, published 2010)", "key": {"[1]": {"test_system": "mouse ANO1", "test": "Whole-cell current recording in mouse ANO1 stable HEK cell line", "format": "cell-based", "conditions": "500 nM ionomycin, mANO1 stable HEK cell line", "protocol": "A stable cell line (HEK cells) that constitutively over-expresses mANO1 is constructed for high throughput screening analysis. In order to test whether the HEK cell line elicits ANO1 currents, ionomycin was applied. Application of ionomycin evoked a robust inward Cl^− currents in a whole cell. Pipette and bath solutions contained 140 mM NMDG-Cl.\nHEK293 cells were transfected with pEGFP-N-1-mANO1 using Lipofectamine (Invitrogen Corp., Carlsbad, Calif.). After selection in 800 μg/ml geneticin (Invitrogen Corp., Carlsbad, Calif.) for 15 days, single colonies were picked with cloning cylinders and tested for activity of ANO1.\nTo detect active compounds from chemical libraries or other sources of chemicals, a stable cell line, that constitutively expresses mouse ANO1, was constructed in accordance with the method of Reference Example 7. To construct a stable cell line, mouse ANO1 DNA was incorporated to the genomic DNA of human embryonic kidney (HEK) cells.\nThis confirms that ANO1 is constitutively expressed in the stable cell line."}, "[2]": {"target": "T1, mANO1 (Mus musculus, UniProt Q8BHY3, S527P)", "T1 sequence (Q8BHY3 1-960 S527P)": "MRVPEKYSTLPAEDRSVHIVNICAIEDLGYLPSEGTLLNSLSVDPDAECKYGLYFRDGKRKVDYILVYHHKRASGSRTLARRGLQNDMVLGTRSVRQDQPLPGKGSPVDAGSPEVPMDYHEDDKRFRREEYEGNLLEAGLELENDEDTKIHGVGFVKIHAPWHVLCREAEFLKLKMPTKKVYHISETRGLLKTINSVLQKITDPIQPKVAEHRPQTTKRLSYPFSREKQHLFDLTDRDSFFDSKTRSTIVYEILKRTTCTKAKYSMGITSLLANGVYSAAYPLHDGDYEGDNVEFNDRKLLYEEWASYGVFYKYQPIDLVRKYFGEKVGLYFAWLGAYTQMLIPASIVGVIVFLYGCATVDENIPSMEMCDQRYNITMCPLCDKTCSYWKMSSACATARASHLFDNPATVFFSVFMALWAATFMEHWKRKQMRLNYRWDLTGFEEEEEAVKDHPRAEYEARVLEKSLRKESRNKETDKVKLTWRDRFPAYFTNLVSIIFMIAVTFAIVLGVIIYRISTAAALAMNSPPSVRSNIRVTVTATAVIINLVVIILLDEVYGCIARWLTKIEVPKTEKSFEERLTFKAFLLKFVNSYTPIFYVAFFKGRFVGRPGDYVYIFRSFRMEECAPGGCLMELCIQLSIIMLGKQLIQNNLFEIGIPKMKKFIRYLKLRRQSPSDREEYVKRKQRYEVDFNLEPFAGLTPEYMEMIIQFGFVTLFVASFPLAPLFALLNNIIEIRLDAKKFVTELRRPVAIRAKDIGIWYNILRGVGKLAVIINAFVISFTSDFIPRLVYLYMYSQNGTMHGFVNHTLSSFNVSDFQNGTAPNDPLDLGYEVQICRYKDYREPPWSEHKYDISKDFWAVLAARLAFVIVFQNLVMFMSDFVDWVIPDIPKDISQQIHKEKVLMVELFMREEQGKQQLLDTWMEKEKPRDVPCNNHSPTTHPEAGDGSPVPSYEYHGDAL", "test": "Two-electrode voltage clamp currents in Xenopus oocytes injected with mANO1 complementary RNA", "format": "cell-based", "parameters": "expressed in transfected cells; host or cells: Xenopus laevis oocytes (cRNA injection)", "conditions": "ionomycin 4 μM; mANO1 expressing oocytes", "protocol": "pSDTF-mANO1 obtained in Reference Example 1 was linearized using BamHI. Complementary RNA was transcribed with SP6 RNA polymerase (mMESSAGE mMACHINE® SP6 Kit, Ambion, Austin, Tex.). After being defolliculated with collagenase (Type IA, Sigma), Xenopus laevis oocytes were injected with 50 ng of the complementary RNAs of mANO1 in 50 nl of diethylpyrocarbonate-treated water. Two to five days after the injection, whole cell currents were recorded using the two-electrode voltage clamp technique. The bath solution contained 96 mM NaCl, 1 mM MgCl2, 5 mM HEPES, 2 mM KCl and 1.8 mM CaCl2 at pH 7.5 and was perfused at 2 ml/min. Experiments were performed at room temperature.\nXenopus oocytes provide a recognized model for endogenous CaCC studies because they express endogenous CaCCs that are required for ‘fertilization depolarization’ (Hartzell, H. C. et al., Mol Pharmacol 51, 683-92 (1997)). Furthermore, the biophysical and pharmacological properties of Xenopus CaCCs are similar to those of mammalian CaCCs (Machaca, K. et al., Calcium-Activated Chloride Channels (ed. Fuller, C. M.) (Academic Press, Amsterdam, 2002)). Accordingly, the present inventors expressed mANO1 in Xenopus oocytes and tested its activation by receptor stimulation using 1 μM LPA (lysophosphatidic acid). CaCCs in Xenopus are known to be activated by LPA (Guo, Z. et al., Proc Natl Acad Sci USA. 93, 14367-72 (1996); and Kim, M. J. et al., Biochem Pharmacol. 59, 241-7 (2000)). […] Moreover, LPA-induced ANO1 currents were outwardly-rectifying, like those of native CaCCs in Xenopus oocytes (Machaca, K. et al., supra) (FIG. 4C). The reversal potential was 37.7±1.05 mV (n=5), which is close to the equilibrium potential of Cl^− in Xenopus oocytes (Weber, W., Biochim Biophys Acta 1421, 213-33 (1999)).\nIndeed, LPA (1 μM) applied to oocytes expressing mANO1 induced a large inward current.\nFurther, pretreatment of 1 μM thapsigargin blocked the IP3-induced current in a mANO1-expressing oocyte (FIGS. 10C and 10D).\nLPA-induced ANO1 currents were blocked by Cl^− channel blockers. The Cl^− channel blockers were applied 10˜20 min before the LPA application. […] This blockade of agonist-induced ANO1 currents by DIDS, niflumic acid, or NPPB were also observed in mammalian cells transfected with mANO1."}}, "data": [{"compound": "C[C@H](CCC(=O)O)C[C@H](C)C[C@H](C)C(=O)/C=C(\\O)[C@H](C)C[C@H](C)C/C=C/[C@@H](C)[C@@H](O)[C@@H](C)[C@@H](O)C[C@@H]1CC[C@@](C)([C@H]2CC[C@@](C)([C@@H](C)O)O2)O1", "note": "[ionomycin]", "values": [{"measurement": "inward current evoked by ionomycin", "setting": "[1]", "result": "robust inward current"}, {"measurement": "activation of mANO1 by Ca2+ ionophore", "setting": "[2]", "result": "Activation"}]}]}
